One assay concerns the target T1, MMP-9 (Homo sapiens, UniProt P14780).
T1 construct: made in house; host or cells: MMP-9-transfected HT1080 cells (spent media)
Briefly: In vitro MMP inhibition, Ki determination (fluorogenic substrate II). It is filed as biochemical. As to conditions: value outside parentheses. A digest of the protocol:
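HT1080-derived MMP-9, activated with APMA, trypsin or MMP-3, incubated 1 hr at room temperature with inhibitor and 4 μM fluorogenic substrate II (at or below Km) in pH 7.5 Tris/NaCl/CaCl2 buffer; ex 330/em 420 nm. Ki from Morrison-equation regression, without substrate correction.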

In another assay the target is T2, MMP-14 (Homo sapiens, UniProt P50281).
T2 construct: The catalytic domain enzyme was expressed in E. coli inclusion bodies, solubilized in urea; made in house
The assay is described as above. Format: biochemical. Conditions: value outside parentheses; read-out: MMP-14 Ki. In outline:
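Apparent Ki was fitted with Morrison's equation from reaction rates at a single low enzyme level. Enzyme was APMA- or trypsin-activated refolded MMP-14 catalytic domain, buffered at pH 7.5 with 10 mM CaCl2.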

Several values for one entry are separate records, joined by “and”; a condition that tells them apart may be missing. Equal entries are not always repeated.

T1 sequence (P14780 107-707 limits assumed): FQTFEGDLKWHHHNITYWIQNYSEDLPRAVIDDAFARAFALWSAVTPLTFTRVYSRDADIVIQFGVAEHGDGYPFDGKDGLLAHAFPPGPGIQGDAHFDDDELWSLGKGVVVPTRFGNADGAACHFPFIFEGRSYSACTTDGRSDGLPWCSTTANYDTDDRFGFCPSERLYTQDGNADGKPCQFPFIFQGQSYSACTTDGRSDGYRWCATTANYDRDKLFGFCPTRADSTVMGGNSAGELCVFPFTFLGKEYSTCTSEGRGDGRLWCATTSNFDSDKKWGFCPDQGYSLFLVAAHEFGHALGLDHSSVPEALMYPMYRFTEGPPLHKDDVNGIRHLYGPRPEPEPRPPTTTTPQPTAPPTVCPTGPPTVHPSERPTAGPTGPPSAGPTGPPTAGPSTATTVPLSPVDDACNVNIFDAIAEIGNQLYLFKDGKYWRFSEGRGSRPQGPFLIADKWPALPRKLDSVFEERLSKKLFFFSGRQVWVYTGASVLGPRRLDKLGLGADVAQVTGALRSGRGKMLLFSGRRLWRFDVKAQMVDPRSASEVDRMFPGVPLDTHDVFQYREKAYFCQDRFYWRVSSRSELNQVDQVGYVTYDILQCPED

A word on the Ki: it is a dissociation constant, usually derived from enzyme kinetics or from competition with a known ligand. Regarding `O=C(NO)C1(S(=O)(=O)N2CCN(c3ccc(OCC4CC4)c(F)c3)CC2)CCOCC1` [Example 333], the figures for the Ki at MMP-9 and at MMP-14 were 1.05 nM and 2360 nM, respectively.

On to `O=C(NO)C1(S(=O)(=O)N2CCC(c3ccc(OCC(F)(F)C(F)(F)F)cc3)CC2)CCOCC1` [Example 330], for which the Ki was 3.03 nM at MMP-9 and more than 10000 nM at MMP-14.

`Cc1ccc(-c2cnc(N3CCN(S(=O)(=O)C4(C(=O)NO)CCOCC4)CC3)s2)cc1` [Example 344]: the Ki at MMP-9 was found to be 0.492 nM; at MMP-14 it was 75 nM.

Regarding `O=C(NO)C1(S(=O)(=O)N2CCN(c3ncc(-c4ccccn4)s3)CC2)CCOCC1` [Example 387], the results for the Ki on MMP-9 and at MMP-14 were 34.6 nM and 4550 nM, respectively.

As to `O=C(NO)C1(S(=O)(=O)N2CCN(c3ccc(CCCC(F)(F)F)cn3)CC2)CCOCC1` [Example 358], the results for the Ki on MMP-9 and on MMP-14 were 0.86 nM and 2950 nM, respectively.

For `O=C(NO)C1(S(=O)(=O)N2CCC(COCc3ccccc3)CC2)CCOCC1` [Example 373], the Ki on MMP-9 amounted to 7.65 nM; on MMP-14 it was 79.7 nM.

As for `O=C(NO)C1(S(=O)(=O)N2CCN(c3cnn(-c4ccccc4)c(=O)c3)CC2)CCOCC1` [Example 322], the Ki at MMP-9 and at MMP-14 was more than 10000 nM in each case.

As to `Cc1ccccc1-c1cnc(N2CCN(S(=O)(=O)C3(C(=O)NO)CCOCC3)CC2)s1` [Example 348], the Ki at MMP-9 turned out to be 9.57 nM; at MMP-14, 650 nM.

Take `NC(=O)c1ccccc1-c1cnc(N2CCN(S(=O)(=O)C3(C(=O)NO)CCOCC3)CC2)s1` [Example 383]: the inhibition constant Ki at MMP-9 was 9520 nM; at MMP-14, more than 10000 nM.

As to `O=C(NO)C1(S(=O)(=O)N2CCN(c3cccc(OCCCC(F)(F)F)c3)CC2)CCOCC1` [Example 355], the Ki was 638 nM on MMP-9 and 3440 nM on MMP-14.

Consider `O=C(NO)C1(S(=O)(=O)N2CCC(c3ccc(-c4ccccc4)cn3)CC2)CCOCC1` [Example 392], for which the Ki amounted to 2.33 nM at MMP-9 and 1290 nM on MMP-14.

Consider `N#Cc1cccc(-c2cnc(N3CCN(S(=O)(=O)C4(C(=O)NO)CCOCC4)CC3)s2)c1` [Example 384], for which the Ki at MMP-9 turned out to be 6.4 nM; on MMP-14, 867 nM.

`O=C(NO)C1(S(=O)(=O)N2CCN(c3ccc(-c4ccc(F)cc4F)cn3)CC2)CCOCC1` [Example 316]: the Ki at MMP-9 is 2.39 nM; on MMP-14 it was 910 nM.

For the compound `O=C(NO)C1(S(=O)(=O)N2CCC(c3ccc(CCCC(F)(F)F)cc3)CC2)CCN(C2CC2)CC1` [Example 351], the Ki at MMP-9 came out at 0.431 nM; on MMP-14, 4740 nM.

Consider `O=C(NO)C1(S(=O)(=O)N2CCN(c3ncc(-c4ccc(-c5ccccc5)cc4)s3)CC2)CCOCC1` [Example 360], for which the Ki came to 6.28 nM on MMP-9 and 216 nM at MMP-14.

`O=C(NO)C1(S(=O)(=O)N2CCN(c3cnn(CCCC(F)(F)F)c(=O)c3)CC2)CCOCC1` [Example 321]: the Ki on MMP-9 and at MMP-14 was more than 10000 nM in each case.

Consider `O=C(NO)C1(S(=O)(=O)N2CCN(c3ccc(-c4ccccc4)cn3)CC2)CCOCC1` [Example 372], for which the Ki on MMP-9 was 0.665 nM and 0.75 nM; at MMP-14, 462 nM and 470 nM.

As for `O=C(NO)C1(S(=O)(=O)N2CCN(c3ncc(-c4ccc(Cl)c(Cl)c4)s3)CC2)CCOCC1` [Example 369], the inhibition constant Ki at MMP-9 was determined as 22.7 nM; at MMP-14 it was 343 nM.

In the case of `CCCCc1ccc(C2CCN(S(=O)(=O)C3(C(=O)NO)CCNCC3)CC2)nc1` [Example 388], the Ki was 2.3 nM at MMP-9 and more than 10000 nM at MMP-14.

On to `O=C(NO)C1(S(=O)(=O)N2CCN(c3ccc(-c4ccc(Cl)c(Cl)c4)cc3)CC2)CCOCC1` [Example 328], for which the figures for the Ki on MMP-9 and at MMP-14 were 95.7 nM and 2690 nM, respectively.

As to `CC(C)(C)c1ccc(-c2cnc(N3CCN(S(=O)(=O)C4(C(=O)NO)CCOCC4)CC3)s2)cc1` [Example 347], the results for the Ki on MMP-9 and on MMP-14 were 6.38 nM and 84.6 nM, respectively.

`O=C(NO)C1(S(=O)(=O)N2CCC(c3ccc(OC(F)(F)C(F)(F)F)cc3)CC2)CCOCC1` [Example 349]: the Ki was 29.2 nM at MMP-9 and more than 10000 nM on MMP-14.

Consider `O=C(NO)C1(S(=O)(=O)N2CCC(COCC(F)(F)C(F)F)CC2)CCOCC1` [Example 375], for which the Ki on MMP-9 amounted to 105 nM; on MMP-14, 2860 nM.

Turning to `Cc1cccc(-c2cnc(N3CCN(S(=O)(=O)C4(C(=O)NO)CCOCC4)CC3)s2)c1` [Example 370], the results for the Ki at MMP-9 and at MMP-14 were 9.1 nM and 341 nM, respectively.

As for `COc1ccccc1-c1ccc(N2CCN(S(=O)(=O)C3(C(=O)NO)CCOCC3)CC2)nc1` [Example 318], the Ki at MMP-9 amounted to 1380 nM; at MMP-14, 1490 nM.

Consider `O=C(NO)C1(S(=O)(=O)N2CCN(c3ncc(-c4ccc(O)cc4)s3)CC2)CCOCC1` [Example 368], for which the results for the Ki at MMP-9 and on MMP-14 were 0.423 nM and 180 nM, respectively.

Regarding `O=C(NO)C1(S(=O)(=O)N2CCC(COCC(F)(F)C(F)(F)C(F)(F)C(F)F)CC2)CCOCC1` [Example 378], the Ki at MMP-9 was 219 nM; on MMP-14, more than 10000 nM.

Take `O=C(NO)C1(S(=O)(=O)N2CCC(c3ccc(OCC(F)(F)F)cc3)CC2)CCOCC1` [Example 357]: the Ki at MMP-9 was 0.718 nM; on MMP-14 it was 2290 nM.

`O=C(NO)C1(S(=O)(=O)N2CCN(c3ccc(-c4cccc(OC(F)(F)F)c4)cn3)CC2)CCOCC1` [Example 319]: the Ki was 923 nM on MMP-9 and more than 10000 nM on MMP-14.

On to `O=C(NO)C1(S(=O)(=O)N2CCN(c3ncc(-c4ccc([N+](=O)[O-])cc4)s3)CC2)CCOCC1` [Example 363], for which the Ki on MMP-9 came to 1.74 nM; on MMP-14, 27.8 nM.

Consider `CCCCc1ccc(-c2cnc(N3CCN(S(=O)(=O)C4(C(=O)NO)CCOCC4)CC3)s2)cc1` [Example 379], for which the Ki at MMP-9 came out at 3.97 nM; at MMP-14, 283 nM.

For `O=C(NO)C1(S(=O)(=O)N2CCN(c3ccc(-c4ccccc4F)cn3)CC2)CCOCC1` [Example 317], the values for the Ki on MMP-9 and on MMP-14 were 2.18 nM and 653 nM, respectively.

Take `CCc1ccc(C2CCN(S(=O)(=O)C3(C(=O)NO)CCN(CCOC)CC3)CC2)s1` [Example 314]: the results for the Ki at MMP-9 and on MMP-14 were 22 nM and 1310 nM, respectively.

For `CCCCCc1cccc(N2CCN(S(=O)(=O)C3(C(=O)NO)CCOCC3)CC2)c1` [Example 356], the Ki was 184 nM at MMP-9 and 3420 nM at MMP-14.

`O=C(NO)C1(S(=O)(=O)N2CCN(c3ccc(Br)cn3)CC2)CCOCC1` [Example 331]: the Ki was 1.7 nM at MMP-9 and 13.5 nM at MMP-14.

Turning to `CCCCCc1ccc(-c2cnc(N3CCN(S(=O)(=O)C4(C(=O)NO)CCOCC4)CC3)s2)cc1` [Example 380], the values for the Ki at MMP-9 and on MMP-14 were 16.2 nM and 3210 nM, respectively.

On to `O=C(NO)C1(S(=O)(=O)N2CCN(c3ccc(CCC(F)(F)C(F)(F)F)cc3)CC2)CCN(C2CC2)CC1` [Example 335], for which the Ki on MMP-9 worked out at 0.384 nM; on MMP-14, 9290 nM.

Turning to `O=C(NO)C1(S(=O)(=O)N2CCC(c3ccc(-c4cccs4)cn3)CC2)CCOCC1` [Example 394], the Ki was 1.52 nM on MMP-9 and 931 nM at MMP-14.

Turning to `O=C(NO)C1(S(=O)(=O)N2CCC(c3ccc(CCC(F)(F)C(F)(F)F)cn3)CC2)CCOCC1` [Example 340], the Ki at MMP-9 was 0.222 nM; on MMP-14, 1300 nM.

For `O=C(NO)C1(S(=O)(=O)N2CCC(c3ccc(OCC(F)(F)C(F)F)cc3)CC2)CCN(CCN2CCOCC2)CC1` [Example 385], the figures for the Ki at MMP-9 and on MMP-14 were 0.829 nM and 2930 nM, respectively.

As to `O=C(NO)C1(S(=O)(=O)N2CCN(c3ncc(-c4ccc(C(F)(F)F)cc4)s3)CC2)CCOCC1` [Example 346], the Ki on MMP-9 came out at 2.05 nM; at MMP-14 it was 114 nM.

As to `O=C(NO)C1(S(=O)(=O)N2CCN(c3ncc(/C=C/c4ccccc4)s3)CC2)CCOCC1` [Example 361], the Ki was 36.1 nM and 32.9 nM on MMP-9; 497 nM and 460 nM at MMP-14.

As to `O=C(NO)C1(S(=O)(=O)N2CCN(c3ccc(CCCC(F)(F)F)c(F)c3)CC2)CCOCC1` [Example 389], the Ki at MMP-9 amounted to 1.34 nM; at MMP-14 it was 3170 nM.

In the case of `O=C(NO)C1(S(=O)(=O)N2CCN(c3ncc(-c4ccc5c(c4)OCO5)s3)CC2)CCOCC1` [Example 362], the Ki came out at 1.37 nM on MMP-9 and 150 nM at MMP-14.

As to `O=C(NO)C1(S(=O)(=O)N2CCN(c3ccc(CCCC(F)(F)F)cc3)CC2)CCOCC1` [Example 320], the Ki is 1.33 nM at MMP-9 and 3930 nM on MMP-14.

For `O=C(NO)C1(S(=O)(=O)N2CCN(c3ncc(-c4ccc(F)cc4)s3)CC2)CCOCC1` [Example 345], the Ki on MMP-9 was determined as 0.416 nM; on MMP-14, 38.1 nM.

Regarding `O=C(NO)C1(S(=O)(=O)N2CCC(c3ccc(CCCC(F)(F)F)cc3)CC2)CCOCC1` [Example 353], the Ki worked out at 0.546 nM at MMP-9 and 2710 nM at MMP-14.

In the case of `O=C(NO)C1(S(=O)(=O)N2CCN(c3ncc(-c4ccc(OC(F)(F)F)cc4)s3)CC2)CCOCC1` [Example 364], the figures for the Ki at MMP-9 and on MMP-14 were 0.802 nM and 69.7 nM, respectively.

Turning to `O=C(NO)C1(S(=O)(=O)N2CCC(COCC(F)(F)C(F)(F)F)CC2)CCOCC1` [Example 376], the Ki at MMP-9 turned out to be 114 nM; on MMP-14, 3120 nM.

Regarding `O=C(O)c1ccc(N2CCN(S(=O)(=O)C3(C(=O)NO)CCOCC3)CC2)cc1` [Example 352], the Ki on MMP-9 was 6610 nM; on MMP-14, more than 10000 nM.

As for `O=C(NO)C1(S(=O)(=O)N2CCN(c3ncc(-c4cccnc4)s3)CC2)CCOCC1` [Example 382], the Ki on MMP-9 was found to be 4.26 nM; at MMP-14, 778 nM.

Consider `O=C(NO)C1(S(=O)(=O)N2CCN(c3ncc(-c4ccc(Cl)cc4)s3)CC2)CCOCC1` [Example 343], for which the Ki worked out at 0.489 nM on MMP-9 and 34.9 nM at MMP-14.
